Earlier results as cited in patent publication US7422908B2, “Chemiluminescent 1,2-dioxetanes” (priority 2002, dated 2008).

Tests used:
[1] = thermal decomposition
[2] = compared with 1,2-dioxetanes (14) and (15); CH3 group replaced with CH2CH2CH2COOH

| decomposes at (temperature) [1] | SMILES | solubility in an aqueous system [2] |
| --- | --- | --- |
| 150 °C | C1C2CC3CC1CC(C2)C31OOC12C1CC3CC(C1)CC2C3 (centres unmarked) [Dioxetane 5] | – |
| – | O=C(O)CCCOC1(c2cccc(OP(=O)(O)O)c2)OOC12C1CC3CC(C1)CC2C3 (centres unmarked) [Dioxetane 16] | more soluble in an aqueous system than 1,2-dioxetane (14) and (15) |
